Measured values: patent publication US4361573A, “α,α-Diaryl-β-(tert-amino)-propanols and diuretic pharmaceutical compositions containing them” (Temmler AG, priority 1974, dated 1982)
Read-outs that look alike come from different tables or passages of the source.

Tests used:
[1] = saluretic efficiency test in rats: elimination of water, sodium, chloride and potassium in 6 h urine after oral dosing; format: in vivo; conditions: for Quotient Na/K / Mean percentage variation in the elimination of Chloride / Mean percentage variation in the elimination of H2O / Mean percentage variation in the elimination of Sodium / Mean percentage variation in the elimination of potassium / change in vivo at 40 µmol/kg / change in vivo at 80 µmol/kg: rats, oral; for change in vivo at 40 µmol/kg / change in vivo at 80 µmol/kg: Rattus norvegicus
Method: In order to test the saluretic efficiency of the compounds of the invention rats having a weight of 150 to 200 g were used. The animals were kept without food, but not without drinking water, for 15 hours before the beginning of the test. The test substances were administered to groups of four rats, of substantially equal weight, with a rigid stomach probe in a 1% methyl cellulose slime. The dose required per 100 g animal (unit dosage in μmol/kg body weight) was contained in one ml. Following the administration of the substance the rats were given 5 ml 0.9% sodium chloride solution per 100 g body weight p.o. and placed in a diuresis funnel after manually emptying the bladder. Urine was collected for 6 hours in an airconditioned chamber at 24°±1° C. and a relative air humidity of 50±5%. The diuretic effect of a particular dose was tested on at least two, but more frequently however on four to eight groups of rats. Two sodium chloride controls were also used for each test day.
At the end of the collecting periods the volumes of urine discharged per group were noted and the pH value and also the content of sodium, potassium (flame-photometrically) and chloride (measured argentometrically with the determination of the end point potentiometrically) were determined.
From the analysis results the quantities of Na^+, K^+ and Cl^- eliminated were calculated in […] body weight, and the values thus obtained compared with those of the control animals.
Means values and twice the standard deviation were calculated from the data for the sodium chloride controls, in order to determine the normal range. Then, for the values found with the test substances, the percentage variations from the average in respect of these parameters were calculated and tabulated. In this connection, with the results given in Table 1, the upper limit of the normal range, which is defined as the mean value plus twice the standard deviation, was selected as the reference quantity for the variations. In this way relevant hyper-eliminations could clearly be recognised.
In Table 2, the mean percentage variations in potassium elimination after administration of the compounds in accordance with the invention are compared with the mean value of the potassium elimination in the case of the sodium chloride controls. At the same time the […] ratio is given which provides conclusive evidence of the effective saluretic property. The larger this quotient is, then the more sodium than potassium is eliminated in proportion.

[2] = comparison of toxicity in mice: oral LD50 by the Lichtfiel & Wilcoxon method; format: in vivo; conditions: observation period 7 days, 95% confidence limit in brackets
Excerpt: In Table 3 the mean lethal doses for mice, administered orally (LD50 determination by the […] & WILCOXON method - J.Pharmacol. Exp. Ther. 96,98 (1949)) are compared.

[3] = 40 μmol/kg body wt., deviation from control mean plus twice the standard deviation, 6 h urine
[4] = 80 μmol/kg body wt., deviation from control mean plus twice the standard deviation, 6 h urine
[5] = 6 h, 40 μmol/kg body wt., relative to mean K+ elimination of the controls, read-out: Mean percentage variation in the elimination of potassium
[6] = 6 h, 80 μmol/kg body wt., relative to mean K+ elimination of the controls, read-out: Mean percentage variation in the elimination of potassium
[7] = 40 μmol/kg body wt., deviation from control mean plus twice the standard deviation, 6 h urine, read-out: Mean percentage variation in the elimination of Chloride
[8] = 40 μmol/kg body wt., deviation from control mean plus twice the standard deviation, 6 h urine, read-out: Mean percentage variation in the elimination of H2O
[9] = 40 μmol/kg body wt., deviation from control mean plus twice the standard deviation, 6 h urine, read-out: Mean percentage variation in the elimination of Sodium
[10] = 80 μmol/kg body wt., deviation from control mean plus twice the standard deviation, 6 h urine, read-out: Mean percentage variation in the elimination of Chloride
[11] = 80 μmol/kg body wt., deviation from control mean plus twice the standard deviation, 6 h urine, read-out: Mean percentage variation in the elimination of H2O
[12] = 80 μmol/kg body wt., deviation from control mean plus twice the standard deviation, 6 h urine, read-out: Mean percentage variation in the elimination of Sodium
[13] = dose of 10 mol/kg body weight, average

Compound: 1-(2'-methoxy-3'-methyl-5'-tertiary-butylphenyl)-1-(2"-methoxy-4"-hydroxyphenyl- (or 2"-hydroxy-4"-methoxyphenyl)-2-piperidino-propan-1-ol [T 2458]
- Quotient Na/K ([1]; 40 μmol/kg body wt.): 5.60
- Mean percentage variation in the elimination of Chloride [1, 3]: 16.9%
- Mean percentage variation in the elimination of H2O [1, 3]: 30.9%
- Mean percentage variation in the elimination of Sodium [1, 3]: 40.4%
- Mean percentage variation in the elimination of potassium ([1]; 40 μmol/kg body wt., relative to mean K+ elimination of the controls): 49.0%
- Quotient Na/K ([1]; 80 μmol/kg body wt.): 8.06
- Mean percentage variation in the elimination of Chloride [1, 4]: 59.0%
- Mean percentage variation in the elimination of H2O [1, 4]: 83.8%
- Mean percentage variation in the elimination of Sodium [1, 4]: 84.2%
- Mean percentage variation in the elimination of potassium ([1]; 80 μmol/kg body wt., relative to mean K+ elimination of the controls): 37.7%
- LD50 [2]: 3200 mg/kg

Compound: Nc1nc(N)c2nc(-c3ccccc3)c(N)nc2n1 [2.4.7-triamino-6-phenyl-pteridine, reference compound]
- change in vivo at 40 µmol/kg [1, 5]: -43.9%
- change in vivo at 80 µmol/kg [1, 6]: -55.1%
- change in vivo at 40 µmol/kg [1, 7]: -11.7%
- change in vivo at 40 µmol/kg [1, 8]: -1%
- change in vivo at 40 µmol/kg [1, 9]: -4%
- change in vivo at 80 µmol/kg [1, 10]: -11.7%
- change in vivo at 80 µmol/kg [1, 11]: -2%
- change in vivo at 80 µmol/kg [1, 12]: -0.2%
- Quotient Na/K ([1]; 40 μmol/kg body wt.): 10.16
- Quotient Na/K ([1]; 80 μmol/kg body wt.): 13.20

Compound: NS(=O)(=O)c1cc2c(cc1Cl)NCNS2(=O)=O [6-chloro-3.4.-dihydro-7-sulphamoyl-2H-1.2.4.-benzothiadiazine-1.1.-dioxide, reference compound]
- maximum hyper-elimination, chloride ([1]; dose of 10 μmol/kg body weight, average): 17.3%
- maximum hyper-elimination, sodium [1, 13]: 29.6%
- maximum hyper-elimination, water [1, 13]: 19.9%
- Na/K ratio of the quantities eliminated ([1]; maximum effective dose, 10 μmol/kg body wt.): 4.86
- hyper-elimination of potassium ([1]; maximum effective dose, 10 mol/kg body wt.): 58.3%

Compound: COc1cc(C)c(C(O)(c2ccccc2)C(C)N2CCCCC2)cc1C(C)C (stereo not drawn) [T 1523, 1-(4'-methoxy-2'-methyl-5'-isopropylphenyl)-1-phenyl-2-piperidino-propan-1-ol]
- change in vivo at 40 µmol/kg [1, 5]: 25.5%
- change in vivo at 80 µmol/kg [1, 6]: 13.3%
- change in vivo at 40 µmol/kg [1, 7]: -5.1%
- change in vivo at 40 µmol/kg [1, 8]: 28.9%
- change in vivo at 40 µmol/kg [1, 9]: 13.1%
- change in vivo at 80 µmol/kg [1, 10]: 14.2%
- change in vivo at 80 µmol/kg [1, 11]: 39.6%
- change in vivo at 80 µmol/kg [1, 12]: 28.2%
- Quotient Na/K ([1]; 40 μmol/kg body wt.): 5.35
- Quotient Na/K ([1]; 80 μmol/kg body wt.): 6.72
- LD50 ([2]; mouse, in vivo, read-out: LD50): > 3200 mg/kg

Compound: COc1cc(C)c(C(O)(c2ccccc2)C(C)N2CCCC2)cc1C(C)(C)C (stereo not drawn) [T 1856, 1-(4'-methoxy-2'-methyl-5'-tert-butylphenyl)-1-phenyl-2-pyrrolidino-propan-1-ol]
- change in vivo at 40 µmol/kg [1, 5]: 25.5%
- change in vivo at 80 µmol/kg [1, 6]: 22.4%
- change in vivo at 40 µmol/kg [1, 7]: 19.4%
- change in vivo at 40 µmol/kg [1, 8]: 41%
- change in vivo at 40 µmol/kg [1, 9]: 30.6%
- change in vivo at 80 µmol/kg [1, 10]: 32.5%
- change in vivo at 80 µmol/kg [1, 11]: 59.7%
- change in vivo at 80 µmol/kg [1, 12]: 47.6%
- Quotient Na/K ([1]; 40 μmol/kg body wt.): 6.18
- Quotient Na/K ([1]; 80 μmol/kg body wt.): 7.16
- LD50 ([2]; mouse, in vivo, read-out: LD50): 2200 mg/kg

Compound: COc1c(C)cc(C(C)(C)C)cc1C(O)(c1ccccc1)C(C)N1CCCCC1 (stereo not drawn) [T 1857, 1-(2'-methoxy-3'-methyl-5'-tert-butylphenyl)-1-phenyl-2-piperidino-propan-1-ol]
- change in vivo at 40 µmol/kg [1, 5]: 30.6%
- change in vivo at 80 µmol/kg [1, 6]: 29.6%
- change in vivo at 40 µmol/kg [1, 7]: 32.9%
- change in vivo at 40 µmol/kg [1, 8]: 52%
- change in vivo at 40 µmol/kg [1, 9]: 54.8%
- change in vivo at 80 µmol/kg [1, 10]: 36%
- change in vivo at 80 µmol/kg [1, 11]: 56.5%
- change in vivo at 80 µmol/kg [1, 12]: 54.6%
- Quotient Na/K ([1]; 40 μmol/kg body wt.): 7.04
- Quotient Na/K ([1]; 80 μmol/kg body wt.): 7.09
- LD50 ([2]; mouse, in vivo, read-out: LD50): 3820 mg/kg

Compound: COc1c(C)c(C)c(C(O)(c2ccccc2)C(C)N2CCCCC2)c(C)c1C (stereo not drawn) [T 2152, 1-(4'-methoxy-2',3',5',6'-tetramethylphenyl)-1-phenyl-2-piperidino-propane-1-ol]
- change in vivo at 40 µmol/kg [1, 5]: 9.2%
- change in vivo at 80 µmol/kg [1, 6]: 9.2%
- change in vivo at 40 µmol/kg [1, 7]: 11.6%
- change in vivo at 40 µmol/kg [1, 8]: 22.9%
- change in vivo at 40 µmol/kg [1, 9]: 22.7%
- change in vivo at 80 µmol/kg [1, 10]: 5.6%
- change in vivo at 80 µmol/kg [1, 11]: 22.6%
- change in vivo at 80 µmol/kg [1, 12]: 20.4%
- Quotient Na/K ([1]; 40 μmol/kg body wt.): 6.67
- Quotient Na/K ([1]; 80 μmol/kg body wt.): 6.55
